Measured values: ChEMBL document CHEMBL1128866, “Isophthalic acid derivatives: amino acid surrogates for the inhibition of HIV-1 protease” (Bioorg Med Chem Lett, 1995)

Assays:
[1] = Peak oral plasma concentration was determined in rats by oral administration; format: ADME, organism-based; parameters: route oral; conditions: rat
CCRF-CEM = assay: Antiviral activity in HIV-infected CEM cells using whole cell assay; format: functional, cell-based; conditions: Homo sapiens
[2] = biological target: Human immunodeficiency virus type 1 protease (Human immunodeficiency virus 1, UniProt Q72874); assay: Inhibitory activity against human immunodeficiency virus protease (HIVP) using protease inhibition assay

Structure (SMILES) | Cmax [1] [nM] | IC50 (CCRF-CEM) [nM] | IC50 [2] [nM]
CC(C)(C)NC(=O)c1ccccc1C[C@@H](O)[C@H](Cc1ccccc1)NC(=O)[C@H](CC(N)=O)NC(=O)c1ccc2ccccc2n1 | < 100 | 27 | 
CC(C)(C)NC(=O)c1ccccc1C[C@@H](O)[C@H](Cc1ccccc1)NC(=O)c1cccc(C(=O)N2CCc3ccccc3C2)c1 |  |  | 50
Cc1ccc(C(=O)N2CCc3ccccc3C2)cc1C(=O)N[C@@H](Cc1ccccc1)[C@H](O)CN1C[C@H]2CCCC[C@H]2C[C@H]1C(=O)NC(C)(C)C | < 100 | 1400 | 13.8
CC(C)(C)NC(=O)[C@@H]1C[C@@H]2CCCC[C@@H]2CN1C[C@@H](O)[C@H](Cc1ccccc1)NC(=O)[C@H](CC(N)=O)NC(=O)c1ccc2ccccc2n1 |  | 2 | 
Cc1ccc(C(=O)N[C@@H](Cc2ccccc2)[C@H](O)Cc2ccccc2C(=O)NC(C)(C)C)cc1C(=O)N1CCc2ccccc2C1 |  |  | 670
Cc1ccc(C(=O)N(C)Cc2ccccn2)cc1C(=O)N[C@@H](Cc1ccccc1)[C@H](O)CN1C[C@H]2CCCC[C@H]2C[C@H]1C(=O)NC(C)(C)C | 4400 | 77 | 8.6
Cc1ccc(C(=O)N2CCc3ccccc3C2)cc1C(=O)N[C@@H](Cc1ccccc1)[C@H](O)Cc1ccccc1C(=O)NC(C)(C)C |  |  | 6.1
Cc1cc(C(=O)N[C@@H](Cc2ccccc2)[C@H](O)Cc2ccccc2C(=O)NC(C)(C)C)cc(C(=O)N2CCc3ccccc3C2)c1 |  |  | 500
